# Measured values as given in ChEMBL document CHEMBL1128218, “New alpha-thiol dipeptide dual inhibitors of angiotensin-I converting enzyme and neutral endopeptidase EC 3.4.24.11” (J Med Chem, 1995).
# Experiments:
# [1] = target: T1, Angiotensin-converting enzyme (Rattus norvegicus) (UniProt P47820); assay: Evaluation of plasma inhibition of Angiotensin I converting enzyme activity in conscious rat 4 hour after oral administration at a dose of 10 mg/kg; assay type: functional, organism-based; set-up: dose 10 mg/kg
# T1 sequence (whole entry): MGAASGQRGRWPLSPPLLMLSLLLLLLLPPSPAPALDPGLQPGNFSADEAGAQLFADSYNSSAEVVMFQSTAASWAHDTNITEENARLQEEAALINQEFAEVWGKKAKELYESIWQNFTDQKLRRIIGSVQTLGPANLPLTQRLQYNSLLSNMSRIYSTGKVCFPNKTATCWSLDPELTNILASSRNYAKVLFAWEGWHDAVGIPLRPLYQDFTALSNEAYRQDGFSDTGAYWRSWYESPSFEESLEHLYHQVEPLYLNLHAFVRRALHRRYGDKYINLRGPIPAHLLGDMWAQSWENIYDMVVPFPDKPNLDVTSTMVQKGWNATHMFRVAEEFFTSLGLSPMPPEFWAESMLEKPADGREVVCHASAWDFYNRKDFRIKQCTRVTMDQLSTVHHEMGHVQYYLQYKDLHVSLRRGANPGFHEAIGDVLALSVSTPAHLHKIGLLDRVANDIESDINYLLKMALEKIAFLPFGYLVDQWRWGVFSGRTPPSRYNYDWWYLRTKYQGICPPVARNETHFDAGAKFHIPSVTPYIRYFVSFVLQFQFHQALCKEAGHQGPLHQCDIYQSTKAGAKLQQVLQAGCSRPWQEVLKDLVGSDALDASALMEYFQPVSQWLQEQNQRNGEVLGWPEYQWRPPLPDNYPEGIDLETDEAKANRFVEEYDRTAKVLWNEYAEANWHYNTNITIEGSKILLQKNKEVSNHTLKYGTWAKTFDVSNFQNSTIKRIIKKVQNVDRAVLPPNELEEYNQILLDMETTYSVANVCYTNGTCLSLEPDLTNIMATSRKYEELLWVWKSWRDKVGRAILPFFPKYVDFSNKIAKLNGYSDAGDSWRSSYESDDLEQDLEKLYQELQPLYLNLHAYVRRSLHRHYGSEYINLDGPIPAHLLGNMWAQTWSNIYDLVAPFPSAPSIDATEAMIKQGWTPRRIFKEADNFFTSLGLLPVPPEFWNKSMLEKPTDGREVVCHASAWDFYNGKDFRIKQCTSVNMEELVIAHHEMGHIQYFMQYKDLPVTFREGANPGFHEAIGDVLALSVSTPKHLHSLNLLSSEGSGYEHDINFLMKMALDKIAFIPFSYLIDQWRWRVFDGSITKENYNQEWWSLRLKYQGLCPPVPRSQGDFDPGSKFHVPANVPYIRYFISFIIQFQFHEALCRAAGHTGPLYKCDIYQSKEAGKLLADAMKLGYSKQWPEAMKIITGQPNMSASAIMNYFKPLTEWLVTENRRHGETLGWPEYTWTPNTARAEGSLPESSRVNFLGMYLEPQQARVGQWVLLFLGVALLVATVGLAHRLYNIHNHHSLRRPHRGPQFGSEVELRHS
# [2] = target: T1, Angiotensin-converting enzyme (Rattus norvegicus); assay: Evaluation of plasma inhibition of Angiotensin I converting enzyme activity in conscious rat 1 hour after oral administration at a dose of 10 mg/kg; assay type: functional, organism-based; set-up: dose 10 mg/kg
Structure (SMILES),inhibition [1] [%],inhibition [2] [%]
CC(C)[C@H](S)C(=O)NC1(C(=O)N[C@@H](Cc2ccc(O)cc2)C(=O)O)CCCC1,36,48
CC(C)[C@H](S)C(=O)NC1(C(=O)N[C@@H](Cc2c[nH]c3ccccc23)C(=O)O)CCCC1,29,45
